Read-outs that look alike come from different tables or passages of the source.
Legend:
[1] = Anxiolytic and antiaggressive properties and separation from sedation (general statements); settings: in vivo
[2] = Action with respect to tremorine (cholinolytic properties); format: in vivo, mouse; settings: 170 mg/kg oral, mice, 30 min before 100 mg/kg i.p. tremorine
Procedure: This test has been described by EVERETT (Nature, 1956, 177-238)
When injected into mice, tremorine produces peripheral cholinergic effects i.e. weeping, hypersalivation, sedation, diarrhea as well as central cholinergic effects i.e. tremors, akinesia.
Batches of 10 mice separated into individual cages, were given the compound to be studied, by oral route, 30 minutes before administration of an intraperitoneal dose of 100 mg/kg of tremorine.
Note was then taken in each batch of the percentage of animals presenting the various symptoms of tremorine-induced poisoning since at such a dose of tremorine 100% of the control animals are poisoned.
The results hereunder are expressed in percentage of mice protected against tremor at the dose of the compound of the invention which was administered: […]

[3] = "Electrically-provoked combat" test (anxiolytic action); format: in vivo, mouse; settings: Mus musculus, 0.5 h; 71 mg/kg, mice, 30 min before test; read-out: % of decrease in number of combats
From the text: Under certain conditions, a pair of mice reacts to an electric stimulus by a series of combats which are provoked by the anxiety felt by the animals as a result of the electric shock. This anxiety is expressed by a combat with the other animal which is rendered responsible. For this reason, the test described hereunder can be considered as a means of evaluating the anxiolytic action of a compound. Two mice which have been previously on a diet consisting only of water are placed together in a cage. They are then submitted to a series of electric impulses of an intensity varying between 40 and 80 volts according to the sensitivity of the animals. The test is first carried out with untreated animals as controls and then with the same animals treated 30 minutes before the test with a dose of the compound to be studied.
Note is taken on the number of combats engaged. The results are expressed in percentage of decrease in the number of combats engaged by the treated animals in comparison with the number of combats registered before treatment.

[4] = Four plates test (anxiolytic action); format: in vivo, mouse; settings: 0.5 h; 105 mg/kg oral, mouse, 30 min after administration; read-out: % of protection against anxiety
From the text: This test, which is specific to the anxiolytics, was undertaken with the mouse, thirty minutes after the oral administration of the compound to be studied.
It consists in placing mice in a box with fairly high walls, of which the bottom comprises four square plates. These plates, which all have the same dimensions, are separated from each other by a central axis and are alternately electrified by the positive and negative poles of a source of electric current. There is a space of a few millimeters between adjacent plates.
The mouse placed in this apparatus explores it and thus passes over the different plates in succession. Note is taken of the number of times each animal passes over the plates during one minute. When the current is switched on, the mouse passing over the plates receives an electric shock (80 V), which provokes a gradual decrease in the exploratory movements, and finally brings the animals to a complete stop.
Anxiolytic agents enable the animals to become more or less indifferent to the electric shock.
The percentage of protection against anxiety given by compounds of the invention was calculated by comparing the number of times the control animals passed over the plates when electrified with the number of times the treated animals passed over the electrified plates.

[5] = rota rod test (neurotoxicity); format: in vivo, mouse; settings: 370 mg/kg oral, mice, 30 min after administration
Procedure: The test used was that known as the rota rod test described by BOISSIER (Therapie 1958 XIII pp. 1074-1118).
This test aims at determining the ability of mice to coordinate their movements by seeing to what extent they can remain on a roller turning at a rate of 4 revolutions per minute for two minutes. The trial was carried out thirty minutes after administration by oral route of the compound to be studied and the percentage of failures was noted.
The value of this test is twofold. Failure on the part of the animals gives a very early indication of the slightest damage to the meuromuscular functions which cannot be discerned by any other means. Secondly, this test serves as an element of comparison for drawing up index figures involving the results obtained with other tests.

[6] = Action on the pentylenetetrazole-induced seizure (anticonvulsant activity); format: in vivo, mouse
Procedure: The purpose of this test which is carried out on mice is to determine whether the compounds of the invention, when given preventively by oral route, are capable at certain doses of protecting some of the animals against the epileptic seizure produced by a predetermined dose of pentylenetetrazole which would be 100% fatal in the absence of the compound.
The compound to be studied was administered fifteen minutes before an injection of 125 mg/kg of pentylenetetrazole and note was taken of the number of deaths occurring during the three hours following this injection. The results were expressed in percentage of protection of the animals against death at the dose studied.

[7] = cited from earlier work
[8] = Arch. Int. Pharmacodyn 219, 104-115 (1976)

CCCC(CCC)(CCC)NC(=O)NC(C)=O [1-(1,1-di-n-propyl-n-butyl)-3-acetyl-urea]
anxiolytic and antiaggressive activity (in words) [1]: inactive or practically devoid of any anxiolytic or antiaggressive activity

CCCC(CCC)(CCC)NC(=O)NC(=O)c1ccccc1 [1-(1,1-di-n-propyl-n-butyl)-3-benzoyl-urea]
anxiolytic and antiaggressive activity (in words) [1]: inactive or practically devoid of any anxiolytic or antiaggressive activity

C#CC(CC)(CC)NC(N)=O [Compound C, 1-(1,1-Diethyl-2-propynyl)-urea]
% of protection against tremor [2]: 0%
inhibition in vivo at 71 mg/kg [3]: 50%
inhibition in vivo at 105 mg/kg [4]: 50%
% of failures in rota rod test [5]: 50%
responders at 70 mg/kg ([6]; Mus musculus, po, 3 h, read-out: % of protection against death): 50%
anticonvulsant activity (in words) ([6]; pentylenetetrazole-induced seizure, mice, oral): considerable

CCCCNC(N)=O [n-butyl-urea]
pharmacological properties (in words) ([7]; Arch. Int. Pharmacodyn 208, 204-212 (1974)): properties similar to those cited hereabove with respect to tert-butyl-urea

CC(C)(C)NC(N)=O [tert-butyl-urea]
pharmacological properties (in words) [7, 8]: anticonvulsant, hypnotic and sedative properties
potentiation of hypnotic effects of the barbiturates [7, 8]: potentiator of the hypnotic effects of the barbiturates

— US4223041A, “Urea derivatives to treat anxiety and aggressivity” (Labaz, priority 1976, dated 1980)
